# Values of other authors in patent US20220323393A1, “COMPOSITIONS AND METHODS FOR TREATING AND/OR PREVENTING CARDIOVASCULAR DISEASE” (AMARIN PHARMACEUTICALS IRELAND LIMITED, priority 2010, published 2022).
# Tested on: subjects with AAMI
# Settings: 50 mg, Day 21 of repeated dosing
smiles,measurement,setting,value
CN[C@@H](C)C/C=C/c1cncc(OC(C)C)c1 [Ispronicline],Benefit to Power of Attention versus placebo,,61 ms
same,"Power of Attention, mean",SD=61.22,-32.54 ms
